Experiments:
Type in all cases: cell-based
human TLR-2 = target: T1, human TLR-2 (Homo sapiens, UniProt O60603); conditions: 1 ng/ml, positive stimulation control
T1 construct: expressed in transfected cells; host or cells: HEK293 cells (ATCC), transiently transfected with Fugene6
Text: These experiments involve transfecting HEK293 cells (American Type Culture Collection, Manassas, Va.) with two plasmid DNAs. The first plasmid, pcDNA3.1/Hygro (Invitrogen), contains the human TLR-2 gene. The second plasmid, pNF-κB-luc (Stratagene, La Jolla, Calif.), encodes the NF-κB gene linked to a luciferase reporter gene whose product can be followed in vitro as a direct measure of NF-κB-activation. To prepare the DNA for transfection into the cells, Fugene6 (Roche, Basel Switzerland) transfecting reagent is diluted 1:6 in OPTI-MEM (Invitrogen, Carlsbad, Calif.) growth medium. Next, 75 ng of pNF-κB-luc and 300 ng of pcDNA3.1/Hygro DNA are added to the diluted Fugene6 and the mixture is incubated at 37° C. for 30 minutes. HEK293 cells at a concentration of 10^6 cells/ml are added to the DNA/Fugene6 mixture. […] The amount of luciferase activity resulting from incubation with the compounds is evaluated by removing the growth medium from the cells and replacing it with 100 μl of RLB lysis solution (Promega, Madison, Wis.). […] The luciferase activity of each cell culture is determined in a 25 μl aliquot of cell lysate in a Victor Luminometer (Perkin Elmer Life Sciences, Shelton, Conn.) according to the manufacturer's instructions. […]

[1] = test system: human monocyte-derived iDC; assay: Uptake by immature dendritic cells, confocal microscopy; conditions: two minutes incubation at 37° C.; labeled Compound 1 50 μg/ml, FITC-dextran 1 mg/ml
Procedure: Briefly, Oregon-green (Molecular Probes, Eugene, Oreg.)-conjugated Lipid II is included in an MtgA polymerization reaction at a ratio of 1:4 with unlabeled Lipid II to produce a 25% Oregon-green labeled polymer. The polymeric material is purified and treated as previously described. […] After incubation, extracellular probe is removed by washing the cells four times in ice cold complete DC medium (Example 5). Washed cells are then incubated at 37° C. and staining is stopped at two-minute intervals by washing in 1% paraformaldehyde fix diluted in flow wash solution (which also contains the metabolic poison sodium azide; protocol described in Example 5). Glass slide samples are prepared at each time interval and sealed with clear nail polish. Samples are stored at −20° C. and protected from light until analysis on a Radiance 2100 confocal microscope (BioRad Laboratories, Hercules, Calif.).

[2] = test system: human monocyte-derived dendritic cells; assay: Kinetics of uptake by immature dendritic cells, flow cytometry; conditions: 0° C., cells metabolically inactive
Procedure: In these experiments, human monocyte-derived dendritic cells are prepared as described in Example 5. Dendritic cells are resuspended at 5×10^5 cells/sample and incubated on ice at […] At 0, 2, 10, 20, 30, 40, and 50 minutes after the start of incubation, uptake is stopped by washing the cells with four washes of ice cold flow wash buffer (Example 5). The washed cells are fixed in paraformaldehyde also as described in Example 5. Stained, fixed cells are stored at 4° C. protected from light until analysis using a FC500 flow cytometer (Beckman Coulter, Miami, Fla.).

T1 sequence (O60603 21-784): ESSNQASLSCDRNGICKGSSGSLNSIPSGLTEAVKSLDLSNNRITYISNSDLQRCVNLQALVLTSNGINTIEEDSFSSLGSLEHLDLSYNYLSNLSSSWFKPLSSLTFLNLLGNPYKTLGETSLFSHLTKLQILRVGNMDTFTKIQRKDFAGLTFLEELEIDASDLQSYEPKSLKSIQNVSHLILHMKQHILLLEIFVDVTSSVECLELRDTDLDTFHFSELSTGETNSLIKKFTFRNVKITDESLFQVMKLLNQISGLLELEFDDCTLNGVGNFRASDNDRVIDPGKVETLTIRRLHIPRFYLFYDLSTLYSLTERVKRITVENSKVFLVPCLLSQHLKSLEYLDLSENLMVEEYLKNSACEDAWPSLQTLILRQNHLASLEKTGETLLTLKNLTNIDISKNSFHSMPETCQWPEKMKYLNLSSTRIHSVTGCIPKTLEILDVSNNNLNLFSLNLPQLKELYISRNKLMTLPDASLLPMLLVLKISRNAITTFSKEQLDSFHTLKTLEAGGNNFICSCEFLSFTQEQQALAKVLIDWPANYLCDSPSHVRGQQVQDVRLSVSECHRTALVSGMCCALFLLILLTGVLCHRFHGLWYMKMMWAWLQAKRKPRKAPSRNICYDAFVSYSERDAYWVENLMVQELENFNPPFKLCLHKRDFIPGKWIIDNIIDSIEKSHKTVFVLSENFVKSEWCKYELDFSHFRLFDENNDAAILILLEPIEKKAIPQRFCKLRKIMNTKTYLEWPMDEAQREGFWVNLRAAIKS

TNFα
increase in luciferase activity compared with unstimulated cultures (human TLR-2): 22.5 fold

FITC-Dextran
intracellular localization in iDCs (confocal images) [1]: Localization of polymer in endocytic vacuoles | uptake by iDCs over time (mean fluorescence intensity) [2]: uptake is inhibited
